# Assay results as given in patent publication US8017350B2, “Glimepiride- and insulin-induced glycosylphosphatidylinositol-specific phospholipase C regulation” (Sanofi-Aventis Deutschland GmbH, priority 2004, dated 2011).
# Key:
# [1] = tested on: lipolysis, rat adipocytes; experiment: Isoproterenol-induced lipolysis in rat adipocytes; format: cell-based; settings: GPI-2350 50 μM
# Procedure: Electroporation was performed as described in “Müller, G. et al., (2000) Mol. Cell. Biol. 20: 4708-4723”. Lipolysis was determined as release of glycerol or fluorescent NBD-FA from prelabeled and isoproterenol-stimulated adipocytes as described in “Müller, G. et al., (2003) Biochimie 85: 1245-1256”. Gce1 was detected by photolabeling of solubilized plasma membranes or hc/lcDIGs (10-50 μg protein) with 8-N3—[^32P]cAMP and subsequent phosphorimaging as described in “Müller, G. et al., (1994) Biochemistry 33: 12149-12159”. 5′-Nuc, aP and AChE activities were measured according to “Eliakim, R. et al., (1990) Biochim. Biophys. Acta 1355: 293-302”. Protein was determined using the BCA protein determination kit from Pierce (Rockford, Ill.) and BSA as calibration standard. SDS-PAGE was performed using precast gels (Novex, San Diego, Calif.; 10% Bis-Tris resolving gel, morpholinopropanesulfonic acid-SDS running buffer). Lumiimages were evaluated on a LumiImager using LumiImager software (Roche Diagnostics). Phosphor- and fluorescence images were processed and quantified using the Storm 860 PhosphorImager system (Molecular Dynamics, Gelsenkirchen, Germany). Figures were constructed using the ADOBE PHOTOSHOP software (Adobe Systems, Mountain View, Calif.). […]
# rat adipocyte GPI-PLC = experiment: adipocyte GPI-PLC assay (plasma membranes or hc/lcDIGs, AChE substrate, TX-114 partitioning); format: biochemical
# Procedure: GPI-PLD (rat serum) was assayed according to “Hari et al. (1997) Biochim. Biophys. Acta 1355: 293-302” by incubation with 10 μl of human placental aP solution (100 U/ml in 10 mM Hepes/NaOH, pH 7.0, 150 mM NaCl) in 100 μl of 200 mM Tris/maleate (pH 7.0) and 1% Nonidet P-40 for 10 min at 37° C. and subsequent termination of the reaction by addition of 0.4 ml of ice-cold stop buffer (10 mM Hepes/NaOH, pH 7.0, 150 mM NaCl, 0.1 mM MgCl2 and 0.01 mM zinc acetate). GPI-PLC (T. brucei) was assayed as described in “Mensa-Wilmot et al. (1995) Methods Enzymol. 250: 641-655” by incubation with 5 μl of human placental aP solution (see above) in 50 μl of 50 mM Tris/HCl (pH 8.0), 0.25% Nonidet P-40 and 5 mM EDTA for 30 min at 37° C. and subsequent termination of the reaction by addition of 0.45 ml of stop buffer. PI-PLC (B. cereus) and adipocyte GPI-PLC (5-25 μg plasma membranes or hc/lcDIGs) were assayed by incubation with 10 μl of bovine erythrocyte acetylcholinesterase (AChE) solution (12 U/ml in 10 mM Tris/HCl, pH 7.4, 144 mM NaCl, 0.1% TX-100) in 100 μl of 20 mM Hepes/KOH (pH 7.8), 144 mM NaCl, 0.1% TX-100, 0.2 mM MgCl2 for 1 h at 25° C. and subsequent termination by adding 5 μl of glacial acetic acid and then 0.4 ml of 10 mM Tris/HCl (pH 7.4), 144 mM NaCl. Each reaction mixture was subjected to TX-114 partitioning (see below).
# Pelleted hc/lcDIGs (10-50 μg protein) or (G)PI-PLC reaction mixtures (0.5 ml) were separated into amphiphilic and hydrophilic proteins using partitioning between TX-114-enriched and depleted phases according to “Bordier, C., (1981) J. Biol, Chem. […]” by suspending in 1 ml of ice-cold TX-114 (1%), 25 mM Tris/HCl (pH 7.4), 144 mM NaCl or mixing with 0.5 ml of ice-cold TX-114 (2%), respectively. After incubation for 1 h on ice, the mixture was layered onto a cushion of 0.4 ml of 0.25 M sucrose and 25 mM Tris/HCl (pH 7.4) on ice. Phase separation was induced by warming up to 37° C. and subsequent centrifugation (10,000×g, 1 min). After re-extraction of the lower TX-114-enriched phase, aliquots of the pooled upper TX-114-depleted phase were measured for 5′-Nuc, aP and AChE activity or precipitated (15 polyethylene glycol 4000) for SDS-PAGE analysis.
# Table 1: GPI-PLC of hcDIGs from rat adipocytes, GPI-PLC from T. brucei and PI-PLC from B. cereus were incubated with solubilized and partially purified bovine erythrocyte AChE or human placental aP in the absence or presence of increasing concentrations (0.05 μM-1 mM) of the inhibitors indicated under appropriate conditions (see Materials and Methods). Cleavage rate was calculated from the amount of hydrophilic AChE and aP activity recovered with the TX-114-depleted phase upon TX-114 partitioning. […]
compound,measurement,setting,value
"CCCCCCCCCCCCP1(=O)O[C@@H]2[C@H](O)[C@@H](O)[C@H](O)[C@@H](O)[C@@H]2O1 (stereo partly drawn) [GPI-2350, myo-inositol-1,2-cyclo-dodecylphosphonic acid]",glimepiride inhibition of lipolysis with GPI-2350,[1],to lower than control values
same,IC50,"rat adipocyte GPI-PLC; GPI-PLC of hcDIGs from rat adipocytes, inhibitor 0.05 μM-1 mM",200 to 500 nM
same,lipolytic cleavage of AChE after washout,"rat adipocyte GPI-PLC; hcDIGs treated with 50 μM, reisolated, extensively washed, incubated without inhibitor",only low lipolytic cleavage
